The values that follow are results of earlier work, collected in patent US11925695B2, “Methods for making ultrasound contrast agents” (Lantheus Medical Imaging, Inc., priority 2016, dated 2024).

SMILES strings stand for the structures. Like-named read-outs stand apart in the source and are kept apart here.

Experiment in data set [1]: not given
This is another data set of the same source.

For the compound `CCCCCCCCCCCCCCCC(=O)OC[C@H](COP(=O)(O)OCCN)OC(=O)CCCCCCCCCCCCCCC` [DPPE, 1,2-dipalmitoyl-sn-glycero-3-phosphatidylethanolamine], the “pKa for the amine of the ethanolamine” value is listed as 9.3 and the “pKa for the hydroxyl of the phosphate” value is listed as 1.9. Regarding `OCC(O)CO` [Glycerol, glycerol], the viscosity in data set [1] (at 15° C.) is 2200 cps. Regarding `CC(O)CO` (centres unmarked) [Propylene glycol, propylene glycol], in data set [1] (at 25° C.), the viscosity is listed as 42 cps. On to `O` [Water], for which, in data set [1] (at 15° C.), the viscosity entry is “approximately 1.14 cps”.
